Measurements published in patent US6355799B1, “Substituted benzene compounds, process for their preparation, and herbicidal and defoliant compositions containing them” (ISK Americas Incorporated, priority 1997, dated 2002).

Assays:
Format in all cases: in vivo
[1] = tested on: field corn (Zea mays L., var. Dekalb 535, CORN); experiment: Post-emerge test, crop safety; details: phytotoxicity rating 0-100 (0 no damage, 100 complete death), 14 days after application
Method in brief: (§1)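 Fourteen days after spraying, crop and weed injury was graded visually from 0, no effect, to 100, every plant dead. Test substances were dissolved in acetone and applied at 15–1000 g ai/ha with a flat-fan nozzle. Application was either pre-emergence, one day after sowing, or post-emergence at the 2–3 leaf stage.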

[2] = tested on: upland rice (Oryza sp., var. Tebonnet, RICE); experiment: Post-emerge test, crop safety; details: phytotoxicity rating 0-100 (0 no damage, 100 complete death), 14 days after application
Method in brief: as §1

[3] = tested on: ivyleaf morningglory (Ipomoea hederacea, IPOHE); experiment: Pre-emerge test, greenhouse herbicide activity screening; details: pre-emerge, rated 14 days after application, 0 = no damage, 100 = complete death
Method in brief: as §1

[4] = tested on: common ragweed (Ambrosia artemisizfolia L., AMBEL); experiment: as above; details: pre-emerge, rated 14 days after application, 0 = no damage, 100 = complete death
Method in brief: as §1

[5] = tested on: velvetleaf (Abutilon theophrasti, ABUTH); experiment: as above; details: pre-emerge, rated 14 days after application, 0 = no damage, 100 = complete death
Method in brief: as §1

[6] = tested on: lambsquarters (Chenopodium album, CHEAL); experiment: as above; details: pre-emerge, rated 14 days after application, 0 = no damage, 100 = complete death
Method in brief: as §1

[7] = tested on: johnsongrass (Sorghum halepense, SORHA); experiment: as above; details: pre-emerge, rated 14 days after application, 0 = no damage, 100 = complete death
Method in brief: as §1

[8] = tested on: barnyardgrass (Echinochloa crus-galli, ECHCG); experiment: as above; details: pre-emerge, rated 14 days after application, 0 = no damage, 100 = complete death
Method in brief: as §1

[9] = tested on: green foxtail (Setaria viridis, SETVI); experiment: as above; details: pre-emerge, rated 14 days after application, 0 = no damage, 100 = complete death
Method in brief: as §1

[10] = tested on: large crabgrass (Digitaria sanguinalis, DIGSA); experiment: as above; details: pre-emerge, rated 14 days after application, 0 = no damage, 100 = complete death
Method in brief: as §1

[11] = tested on: sicklepod (Cassia obtusifolia, CASOB); experiment: as above; details: pre-emerge, rated 14 days after application, 0 = no damage, 100 = complete death
Method in brief: as §1

[12] = tested on: field corn (Zea mays L., var. Dekalb 535, CORN); experiment: Pre-emerge test, crop safety; details: pre-emerge, rated 14 days after application, 0 = no damage, 100 = complete death
Method in brief: as §1

[13] = tested on: upland rice (Oryza sp., var. Tebonnet, RICE); experiment: Pre-emerge test, crop safety; details: pre-emerge, rated 14 days after application, 0 = no damage, 100 = complete death
Method in brief: as §1

[14] = tested on: ivyleaf morningglory (Ipomoea hederacea, IPOHE); experiment: Post-emerge test, greenhouse herbicide activity screening; details: phytotoxicity rating 0-100 (0 no damage, 100 complete death), 14 days after application
Method in brief: (§2)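 Applied at 15–1000 g ai/ha from acetone in 187 l/ha spray volume. Post-emergence applications included 0.25% v/v non-ionic surfactant and reached plants sown 8–21 days before. Pre-emergence applications were incorporated by surface watering. Efficacy or crop damage was rated on a 0–100 scale after 14 days.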

[15] = tested on: common ragweed (Ambrosia artemisizfolia L., AMBEL); experiment: as above; details: phytotoxicity rating 0-100 (0 no damage, 100 complete death), 14 days after application
Method in brief: as §2

[16] = tested on: velvetleaf (Abutilon theophrasti, ABUTH); experiment: as above; details: phytotoxicity rating 0-100 (0 no damage, 100 complete death), 14 days after application
Method in brief: as §2

[17] = tested on: lambsquarters (Chenopodium album, CHEAL); experiment: as above; details: phytotoxicity rating 0-100 (0 no damage, 100 complete death), 14 days after application
Method in brief: as §2

[18] = tested on: redroot pigweed (Amaranthus retroflexus, AMARE); experiment: as above; details: phytotoxicity rating 0-100 (0 no damage, 100 complete death), 14 days after application
Method in brief: as §2

[19] = tested on: johnsongrass (Sorghum halepense, SORHA); experiment: as above; details: phytotoxicity rating 0-100 (0 no damage, 100 complete death), 14 days after application
Method in brief: as §2

[20] = tested on: barnyardgrass (Echinochloa crus-galli, ECHCG); experiment: as above; details: phytotoxicity rating 0-100 (0 no damage, 100 complete death), 14 days after application
Method in brief: as §2

[21] = tested on: large crabgrass (Digitaria sanguinalis, DIGSA); experiment: as above; details: phytotoxicity rating 0-100 (0 no damage, 100 complete death), 14 days after application
Method in brief: as §2

[22] = tested on: sicklepod (Cassia obtusifolia, CASOB); experiment: as above; details: phytotoxicity rating 0-100 (0 no damage, 100 complete death), 14 days after application
Method in brief: as §2

[23] = tested on: redroot pigweed (Amaranthus retroflexus, AMARE); experiment: Pre-emerge test, greenhouse herbicide activity screening; details: pre-emerge, rated 14 days after application, 0 = no damage, 100 = complete death
Method in brief: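 Visual ratings on a 0-100 scale (0 no damage, 100 all plants dead) were taken at 14 days after treatment. Rates of 15-1000 g ai/ha in acetone, 187 l/ha, were sprayed onto soil one day after planting (pre-emerge) or onto 2-3 leaf plants with 0.25% v/v surfactant (post-emerge).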

Question: With `COc1c(Cl)cc(F)c(-n2c(=O)cc(C(F)(F)F)n(C)c2=O)c1NC(=O)c1cccc(C)c1` [2-23] as the compound, how does the “Post-emerge Herbicidal Activity CORN (crop damage)” value ([1]; 63 g ai/ha) read?
Answer: 40

Question: What about the “Post-emerge Herbicidal Activity CORN (crop damage)” value ([1]; 250 g ai/ha) of the same compound?
Answer: 90

Question: And the “Post-emerge Herbicidal Activity RICE (crop damage)” value ([2]; 63 g ai/ha)?
Answer: 50

Question: And the “Post-emerge Herbicidal Activity RICE (crop damage)” value ([2]; 250 g ai/ha)?
Answer: 95

Question: What about the “Pre-emerge Herbicidal Activity IPOHE (phytotoxicity rating, scale 0-100)” value ([3]; 63 g ai/ha) of the same compound?
Answer: 100

Question: And the “Pre-emerge Herbicidal Activity IPOHE (phytotoxicity rating, scale 0-100)” value ([3]; 250 g ai/ha)?
Answer: 100

Question: What about the “Pre-emerge Herbicidal Activity AMBEL (phytotoxicity rating, scale 0-100)” value ([4]; 63 g ai/ha) of the same compound?
Answer: 100

Question: What about the “Pre-emerge Herbicidal Activity AMBEL (phytotoxicity rating, scale 0-100)” value ([4]; 250 g ai/ha) of the same compound?
Answer: 100

Question: What about the “Pre-emerge Herbicidal Activity ABUTH (phytotoxicity rating, scale 0-100)” value ([5]; 63 g ai/ha) of the same compound?
Answer: 100

Question: What about the “Pre-emerge Herbicidal Activity ABUTH (phytotoxicity rating, scale 0-100)” value ([5]; 250 g ai/ha) of the same compound?
Answer: 100

Question: What about the “Pre-emerge Herbicidal Activity CHEAL (phytotoxicity rating, scale 0-100)” value ([6]; 63 g ai/ha) of the same compound?
Answer: 100

Question: And the “Pre-emerge Herbicidal Activity CHEAL (phytotoxicity rating, scale 0-100)” value ([6]; 250 g ai/ha)?
Answer: 100

Question: And the “Pre-emerge Herbicidal Activity SORHA (phytotoxicity rating, scale 0-100)” value ([7]; 63 g ai/ha)?
Answer: 60

Question: And the “Pre-emerge Herbicidal Activity SORHA (phytotoxicity rating, scale 0-100)” value ([7]; 250 g ai/ha)?
Answer: 90

Question: What about the “Pre-emerge Herbicidal Activity ECHCG (phytotoxicity rating, scale 0-100)” value ([8]; 63 g ai/ha) of the same compound?
Answer: 80

Question: What about the “Pre-emerge Herbicidal Activity ECHCG (phytotoxicity rating, scale 0-100)” value ([8]; 250 g ai/ha) of the same compound?
Answer: 100

Question: What about the “Pre-emerge Herbicidal Activity SETVI (phytotoxicity rating, scale 0-100)” value ([9]; 63 g ai/ha) of the same compound?
Answer: 100

Question: And the “Pre-emerge Herbicidal Activity SETVI (phytotoxicity rating, scale 0-100)” value ([9]; 250 g ai/ha)?
Answer: 100

Question: What about the “Pre-emerge Herbicidal Activity DIGSA (phytotoxicity rating, scale 0-100)” value ([10]; 63 g ai/ha) of the same compound?
Answer: 70

Question: And the “Pre-emerge Herbicidal Activity DIGSA (phytotoxicity rating, scale 0-100)” value ([10]; 250 g ai/ha)?
Answer: 100

Question: And the “Pre-emerge Herbicidal Activity CASOB (phytotoxicity rating, scale 0-100)” value ([11]; 63 g ai/ha)?
Answer: 70

Question: What about the “Pre-emerge Herbicidal Activity CASOB (phytotoxicity rating, scale 0-100)” value ([11]; 250 g ai/ha) of the same compound?
Answer: 100

Question: What about the “Pre-emerge crop damage CORN (phytotoxicity rating, scale 0-100)” value ([12]; 63 g ai/ha) of the same compound?
Answer: 60

Question: What about the “Pre-emerge crop damage CORN (phytotoxicity rating, scale 0-100)” value ([12]; 250 g ai/ha) of the same compound?
Answer: 100

Question: And the “Pre-emerge crop damage RICE (phytotoxicity rating, scale 0-100)” value ([13]; 63 g ai/ha)?
Answer: 80

Question: And the “Pre-emerge crop damage RICE (phytotoxicity rating, scale 0-100)” value ([13]; 250 g ai/ha)?
Answer: 95

Question: What about the “Post-emerge Herbicidal Activity IPOHE” value ([14]; 63 g ai/ha) of the same compound?
Answer: 100

Question: And the “Post-emerge Herbicidal Activity IPOHE” value ([14]; 250 g ai/ha)?
Answer: 100

Question: And the “Post-emerge Herbicidal Activity AMBEL” value ([15]; 63 g ai/ha)?
Answer: 90

Question: And the “Post-emerge Herbicidal Activity AMBEL” value ([15]; 250 g ai/ha)?
Answer: 100

Question: What about the “Post-emerge Herbicidal Activity ABUTH” value ([16]; 63 g ai/ha) of the same compound?
Answer: 100

Question: And the “Post-emerge Herbicidal Activity ABUTH” value ([16]; 250 g ai/ha)?
Answer: 100

Question: What about the “Post-emerge Herbicidal Activity CHEAL” value ([17]; 63 g ai/ha) of the same compound?
Answer: 70

Question: And the “Post-emerge Herbicidal Activity CHEAL” value ([17]; 250 g ai/ha)?
Answer: 90

Question: And the “Post-emerge Herbicidal Activity AMARE” value ([18]; 63 g ai/ha)?
Answer: 70

Question: What about the “Post-emerge Herbicidal Activity AMARE” value ([18]; 250 g ai/ha) of the same compound?
Answer: 100

Question: And the “Post-emerge Herbicidal Activity SORHA” value ([19]; 63 g ai/ha)?
Answer: 50

Question: What about the “Post-emerge Herbicidal Activity SORHA” value ([19]; 250 g ai/ha) of the same compound?
Answer: 90

Question: And the “Post-emerge Herbicidal Activity ECHCG” value ([20]; 63 g ai/ha)?
Answer: 0

Question: And the “Post-emerge Herbicidal Activity ECHCG” value ([20]; 250 g ai/ha)?
Answer: 30

Question: And the “Post-emerge Herbicidal Activity DIGSA” value ([21]; 63 g ai/ha)?
Answer: 0

Question: What about the “Post-emerge Herbicidal Activity DIGSA” value ([21]; 250 g ai/ha) of the same compound?
Answer: 70

Question: And the “Post-emerge Herbicidal Activity CASOB” value ([22]; 63 g ai/ha)?
Answer: 95

Question: And the “Post-emerge Herbicidal Activity CASOB” value ([22]; 250 g ai/ha)?
Answer: 100

Question: What about the “Pre-emerge Herbicidal Activity AMARE (phytotoxicity rating, scale 0-100)” value ([23]; 63 g ai/ha) of the same compound?
Answer: 100

Question: What about the “Pre-emerge Herbicidal Activity AMARE (phytotoxicity rating, scale 0-100)” value ([23]; 250 g ai/ha) of the same compound?
Answer: 100
